Measured values: patent US5252592A, “Tetrazoleacetic acid derivatives having aldose reductase inhibitory activity” (Wakamoto Pharmaceutical Co., Ltd., priority 1991, dated 1993)

Biological target: T1, aldose reductase (Rattus norvegicus, UniProt P07943)
T1 construct: their crystalline lenses were immediately removed and stored at -80° C; The lenses were homogenized; from tissue; host or cells: crystalline lens of six-week-old male SD rats (30,000 rpm supernatant, dialysed)
Experiment: Test for Examining Aldose Reductase Inhibitory Effect
Assay type: biochemical, male SD rats (crystalline lenses)
Conditions: rat lens aldose reductase; DL-glyceraldehyde 10 mM, NADPH 0.15 mM, pH 5.2, 30° C., 5 minutes; least-square regression of log dose-response curve
Procedure: Six-weeks-old male SD rats were anesthetized with ether and killed. Then their crystalline lenses were immediately removed and stored at -80° C. […] The resulting supernatant was dialyzed overnight against 0.05M sodium chloride solution to obtain an aldose reductase solution. All operations were conducted at 4° C. and the enzyme solution was stored at -80° C.
More specifically, 0.1 ml of DL-glyceraldehyde (final concentration: 10 mM) was added to 0.9 ml of 100 mM sodium potassium phosphate buffer (pH 5.2) which contained lithium sulfate (final concentration: 400 mM), reduced nicotinamide adenine dinucleotide phosphate (final concentration: 0.15 mM), the enzyme solution, and the compound to be evaluated (final concentration: 10^-6 M, 10^-7 M or 10^-8 M), and then the reaction was conducted at 30° C. for 5 minutes. During the reaction, the change in the absorbance at 340 nm with time was monitored.
The maximum reducing rate of the absorbance […] during the reaction was determined. By subtracting, from this value, the maximum reducing rate (U0) at 340 nm of the reaction solution before the addition of the substrate (DL-glyceraldehyde), the reaction rate (V=U-U0) was calculated as a true reaction rate in the presence of the compound to be tested.
The same procedure was repeated except for the absence of the compound to be tested. A true reaction rate (V0) in case the enzyme was not inhibited was calculated (V0 =U'-U0 '). The aldose reductase inhibitory activity of the test compounds was determined according to the following formula:
Rate of Inhibition (%)=(V0 -V)/V0 ×100
The concentration of inhibitor giving 50% inhibitation of enyzme activity […] was estimated from the least-square regression line of the log dose-response curve.

IC50 [nM]	SMILES
50	O=C(O)Cn1nnnc1-c1ccc2ccccc2c1 [Example 3 - 1]
25	O=C(O)Cn1nnnc1-c1cccc2ccccc12 [Example 3 - 2, [5-(1-naphthyl)tetrazol-1-yl]acetic acid]
19	COc1ccc2cc(-c3nnnn3CC(=O)O)ccc2c1 [Example 3 - 3]
130	COc1ccc2c(-c3nnnn3CC(=O)O)cccc2c1C(F)(F)F [Example 3 - 4, [5-[1-(6-methoxy-5-trifluoromethyl)naphthyl]tetrazol-1-yl]acetic acid]
